Here are results for one compound from the NIST ThermoML archive (doi:10.1021/je049585t).

Numbers after ± are expanded uncertainties.

For data set [1] the following is noted: Crystal.
Data set [2] is described as follows: Molar enthalpy of transition or fusion. As to conditions: Crystal.

Take `CC1=CCC2C(=O)OC(=O)C2C1` (configuration not stated) [4-methyl-cyclohex-4-ene-1, 2-dicarboxylic acid anhydride]: the Normal melting temperature in data set [1] stood at 62.39 ± 0.83 °C. Also, the “Molar enthalpy of transition or fusion” value in data set [2] is 4.223 ± 0.0239 kcal/mol.
